Results on two compounds are retold here after patent US11707440B2 (priority 2017, dated 2023).

Molecules are shown by their SMILES. A value given as a limit tells only on which side of the number the result lay.

Data set [1] relates to subjects with MDD at imminent risk for suicide. Nature of the data set: Beck Hopelessness Scale (BHS), […]2001. Format: in vivo, human. Particulars: for BHS total score change, Diff. of LS Means (SE) minus placebo: ANCOVA LOCF. The source says: The BHS is a self-reported measure to assess one's level of negative expectations or pessimism regarding the future. It consists of 20 true-false items that examine the respondent's attitude over the past week by either endorsing a pessimistic statement or denying an optimistic statement. For every statement, each response is assigned a score of 0 or 1. The total BHS score is a sum of item responses and ranges from 0 to 20, with a higher score representing a higher level of hopelessness.

The test system is the same in data set [2]. Format: in vivo, human. To be noted: esketamine 84 mg; safety analysis set. As for the experimental part:
Of the 68 subjects in the all randomized analysis set, 19 (27.9%) subjects discontinued from the double-blind phase. More subjects in the esketamine 84 mg group discontinued due to adverse events (5 subjects in the esketamine 84 mg group versus 1 subject in the placebo group) whereas more subjects in the placebo group discontinued due to lack of efficacy (4 subjects in the placebo group versus 1 subject in the esketamine 84 mg group).
More subjects in the esketamine 84 mg group than in the placebo group had all 8 dosing sessions (74.3% vs. 64.5%). Five subjects reduced their dose of esketamine from 84 mg to 56 mg. Of these, 3 reduced their dose due to an adverse event and 2 had their dose reduced in error and were considered major protocol deviations.

On data set [3], the source says:
This example provides an LC-MS/MS method for the determination of ketamine and norketamine in sodium heparin human plasma using ketamine-d4 and norketamine-d4 as the respective internal standards (IS).

For data set [4], the system named is patients with treatment-resistant depression (TRD). Kind of data set: CADSS, Example 7. To be noted: human, in vivo, other: intranasal. As for the experimental part: (§1) Adverse events were monitored throughout the study. Other safety assessments (i.e., laboratory tests, vital signs, physical examination) were performed at pre-specified time points. Vital signs, the Clinician Administered Dissociative States Scale (CADSS; Bremner, “Measurement of dissociative states with the clinician-administered dissociative states scale (CADSS)”, J. Traumatic Stress, 1998, 11(1):125-136), and the 4-item positive symptom subscale from the Brief Psychiatric Rating Scale (BPRS; Overall, “The Brief Psychiatric Rating Scale. Psychological Reports”, 1962, 10:799-812) were assessed pre-dose, at 40 minutes, and 2 hours post-dose.

For data set [5] the test system is unchanged. Nature of the data set: Response, remission and relapse rates (MADRS), Example 7. Format: in vivo, human. Particulars: Period 2 endpoint. The source says: A similar trend for remission (defined as MADRS total score≤10) was observed across groups. […] Response and remission rates at the end of the open-label and follow-up phases are presented by type of treatment in the double-blind and open-label phases in Table 161.

Data set [6] in a line: Pharmacokinetics of esketamine nasal spray, 14 Phase 1 studies (Example 10). To be noted: human, plasma, inhaled or intranasal. As for the experimental part:
The data herein was assembled from 14 Phase 1 studies; each Phase 1 study was performed similarly to the study outlined in Example 9 in which the PK of esketamine was assessed.

In data set [7] the test system is patients with treatment-resistant depression (TRD). Kind of data set: Blood pressure and heart rate, Example 7. Type of data set: in vivo, human. As for the experimental part: as §1
The test system of a further data set is subjects with TRD. Particulars: human, in vivo, other: intranasal.
The test system of data set [8] is subjects with MDD at imminent risk for suicide. To be noted: esketamine 84 mg.
Method: The CADSS was measured prior to the start of each dose, at 40 minutes. 2 hours, and 4 hours postdose.
The subject of data set [9] is patients with treatment-resistant depression (TRD). Nature of the data set: GAD-7, Example 7. Type of data set: in vivo, human. As for the experimental part: Overall illness severity was assessed on the Clinical Global Impression of Severity (CGI-S) scale (Guy, “ECDEU Assessment Manual for Psychopharmacology-Revised (DHEW Publ No ADM 76-338)”, Rockville, Md.: U.S. Department of Health, Education, and Welfare, Public Health Service, Alcohol, Drug Abuse, and Mental Health Administration, NIMH Psychopharmacology Research Branch, Division of Extramural Research Programs; 1976, pp 218-222). Participants assessed their severity of anxiety on the Generalized Anxiety Disorder 7-item (GADS-7) Scale (See, Tables 157 and 15). See, Spitzer, “A brief measure for assessing generalized anxiety disorder—the GAD-7”, Arch. Intern. Med., 2006, 166(10):1092-1097.

Data set [10] shares this test system. Kind of data set: BPRS positive symptom subscale, Example 7. Details: species or system human. To be noted: in vivo. As for the experimental part: as §1
Data set [11] is described as follows: Pharmacokinetics of intranasal esketamine in healthy subjects (Example 9). Particulars: healthy subjects; 28, 56 and 84 mg. As for the experimental part:
Pharmacokinetic blood samples for measurement of esketamine and noresketamine concentrations in plasma were collected from predose until up to 24 hours after each intranasal esketamine regimen on Day 1 of each period.
Blood samples (4 mL each) for determination of esketamine and noresketamine plasma concentrations were collected into the appropriate collection tube (e.g., Vacutainer®) at timepoints 0.00, 0.12, 0.20, 0.37, 0.53, 0.67, 0.83, 1.00, 1.25, 1.50, 2.00, 3.00, 4.00, 6.00, 9.00, 12.00, 18.00, and 24.00 h. The total amount of blood to be drawn for clinical laboratory tests and PK evaluations is approximately 327 mL.
Plasma samples were analyzed for esketamine and noresketamine concentrations using the validated, specific and sensitive liquid chromatography coupled to tandem mass spectrometry (LC-MS/MS) achiral method of Example 8.
Serial PK blood samples (4 mL each) were collected for a 24-hour period from each subject (Periods 1, 2, and 3). […] Statistical Methods 1.6.4.1. Sample Size
The following key parameters of esketamine and noresketamine in plasma were calculated using noncompartmental methods and actual sampling times: Cmax, tmax, AUClast, AUC∞, t1/2,λ, and λz.

[12] abbreviates: Day 1(DB): 4H, LOCF, ITT analysis set.
Setting [13] is: End Point(DB), LOCF, ITT analysis set.
[14] abbreviates: in most cases at 10 or 40 minutes post-dose.

What is called AUC is concentration integrated over time. Low values mean less exposure, high ones more exposure.

Method for subjects with TRD: The Clinician Administered Dissociative States Scale (CADSS) was measured prior to the start of each dose, at 40 minutes, and 1.5 hours postdose.

Turning to `CN[C@]1(c2ccccc2Cl)CCCCC1=O` [Esketamine 84 mg], in [1] (Baseline(DB), predose Day 1, ITT analysis set), the “BHS total score, Median (Range)” value is 17.0 (9; 20). Besides, the “BHS total score change, Diff. of LS Means (SE) minus placebo” value in data set [1] (Day 1(DB): 4H) is recorded as −1.5 (1.47). Further, in [1] (setting [12]), the “BHS total score change from baseline, Mean (SD)” value is on record as −4.1 (5.63); the “BHS total score change from baseline, Median (Range)” value is −2.0 (−16; 2); the “BHS total score, Median (Range)” value is 14.0 (0; 20). Also, the “BHS total score change, Diff. of LS Means (SE) minus placebo” value in data set [1] (End Point(DB)) is −2.3 (1.66). For the same compound, in [1] (setting [13]), the “BHS total score change from baseline, Mean (SD)” value is −10.3 (5.51); the “BHS total score change from baseline, Median (Range)” value is −11.0 (−19; 0); the “BHS total score, Mean (SD)” value is 6.2 (5.96); the “BHS total score, Median (Range)” value is reported as 4.0 (0; 20).

Take `CN[C@]1(c2ccccc2Cl)CCCCC1=O` [esketamine, (S)-2-(2-chlorophenyl)-2-(methylamino)cyclohexanone]: the “Dose decreased during double-blind: No” value in data set [2] is reported as 29 (82.9%). The “Dose decreased during double-blind: Yes” value in [2] is given as 6 (17.1%). The “QC sample freeze/thaw stability” value in data set [3] (freeze (−20° C.)/thaw (room temperature)) is given as 3 freeze (−20° C.)/thaw (room temperature) cycles. Besides, the “QC sample bench-top stability” value in data set [3] (human plasma, room temperature) turned out to be 18 hours at room temperature. The “Time of peak of perceptual changes/dissociative symptoms (CADSS)” value in data set [4] was in the range of 30 to 40 min. For the same compound, the “Time to resolution of perceptual changes/dissociative symptoms (CADSS)” value in [4] is not above 2 h. In addition, the “Proportion of responders (≥50% improvement from baseline in MADRS total score)” value in [5] (56 mg) is 36.4%; in [5] (84 mg), 50.0%. In addition, the AUC in data set [6] (28 mg) fell in the range of 128 to 183 ng·h/mL; in data set [6] (56 mg) it was 216 to 317 ng·h/mL; in data set [6] (84 mg) it was 310 to 489 ng·h/mL. Besides, in data set [7] (dosing days), the “Diastolic blood pressure, maximum mean change” value stood at 10.3 mmHg. Moreover, in [7] (dosing days), the “Heart rate, maximum mean change” value was found to be 9.4 bpm. Moreover, the “Systolic blood pressure, maximum mean change” value in data set [7] (dosing days) turned out to be 19.0 mmHg. Further, the “Time of return of elevated blood pressure to the normal range” value in data set [7] (human, in vivo, other: intranasal) is reported as not above 2 hours post-dose. Further, the “Maximum diastolic blood pressure value” in [7] (setting [14]) turned out to be 115 mmHg. Also, in [7] (setting [14]), the “Maximum systolic blood pressure value” is given as 199 mmHg. The “Time to resolution of dissociative and perceptual change symptoms (CADSS)” value in the data set with subjects with TRD is given as not above 1.5 hours postdose. In addition, the “Time to resolution of dissociative symptoms (CADSS)” value in [8] was not above 2 h. Besides, the “GAD-7 LS mean difference from placebo” value is given as −0.21 in data set [9] (28 mg, Period 1); −1.40 in data set [9] (56 mg, Period 1); 0.60 in [9] (56 mg, Period 2). For the same compound, the “GAD-7 change from baseline, LS mean” value is recorded as −1.5 in [9] (28 mg, Period 1, first day to day 8); −1.6 in data set [9] (28 mg, Period 2, first day to day 8 of period); −3.1 in data set [9] (56 mg, Period 1, first day to day 8); 1.0 in data set [9] (56 mg, Period 2, first day to day 8 of period); −5.1 in [9] (84 mg, Period 1, first day to day 8); −0.9 in data set [9] (84 mg, Period 2, first day to day 8 of period). Besides, in data set [10], the “Symptoms suggestive of psychosis (BPRS-positive assessment)” value is on record as “No participant manifested symptoms suggestive of psychosis”. For the same compound, the “AUC (AUClast and AUC∞) variability, range” value in data set [11] is listed as 25.0% to 30.4. In data set [11], the “Cmax variability (percent coefficient of variation), range across treatment groups” value was 35.7% to 36.7.
